Columns and labels:
recombinant human COX-2 = target: T1, recombinant human COX-2 (Homo sapiens, UniProt P35354); experiment: COX Fluorescent Inhibitor Screening Assay, COX-2; assay type: biochemical; conditions: for SI: COX-1 vs COX-2 selectivity index; for IC50: human COX-2
T1 construct: purchased Cayman Chemical 700100
T1 sequence (P35354 18-604): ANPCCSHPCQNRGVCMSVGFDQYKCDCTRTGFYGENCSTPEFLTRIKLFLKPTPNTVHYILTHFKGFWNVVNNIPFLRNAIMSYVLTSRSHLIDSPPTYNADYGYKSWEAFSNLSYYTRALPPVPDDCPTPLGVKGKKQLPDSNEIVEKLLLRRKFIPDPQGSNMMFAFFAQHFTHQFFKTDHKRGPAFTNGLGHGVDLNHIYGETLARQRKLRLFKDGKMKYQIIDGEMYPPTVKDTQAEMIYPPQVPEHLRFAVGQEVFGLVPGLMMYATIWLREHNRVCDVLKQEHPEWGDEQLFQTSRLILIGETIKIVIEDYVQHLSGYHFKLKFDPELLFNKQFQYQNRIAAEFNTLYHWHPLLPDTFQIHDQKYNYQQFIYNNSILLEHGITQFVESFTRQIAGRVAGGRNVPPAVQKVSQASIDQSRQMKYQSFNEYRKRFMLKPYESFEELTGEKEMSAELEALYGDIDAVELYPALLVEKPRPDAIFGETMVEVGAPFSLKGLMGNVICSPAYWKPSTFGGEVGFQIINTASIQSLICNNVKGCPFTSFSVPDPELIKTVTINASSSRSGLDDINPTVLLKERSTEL
Procedure: COX inhibition (Table 1) was evaluated in vitro using purified ovine COX-1 and recombinant human COX-2 enzyme in a commercially available “COX Fluorescent Inhibitor Screening Assay KIT” (item no. 700100, Cayman Chemical, Ann Arbor, MI, USA). Celecoxib served as a reference and inhibition data concerning 4a, 4e, 5a and 5e were previously reported by us and is herein discussed for comparison.
COX inhibition activity against ovine COX-1 and human COX-2 was determined using the fluorescence-based COX assay “COX Fluorescent Inhibitor Screening Assay Kit” (catalog number 700100; Cayman Chemical, Ann Arbor, MI, USA) according to the manufacturer’s instructions. Compounds 6a–d were screened at a concentration of 100 µM, all others were assayed in a concentration range of 0.1 nM to 100 μM in duplicate.

[1] = system: MPC-HIF2α tumor spheroids; experiment: Spheroid regrowth assay with external X-ray irradiation; assay type: cell-based, mouse; conditions: X-ray 15 Gy; 10 µM compound added 2 h post irradiation; controls 83%
Procedure: (§1) As a first pilot study, growth responses of MPC-HIF2α spheroids were investigated after two different radiation treatments such as single-dose external beam irradiation (X-ray) and incubation with [^177Lu]LuCl3, respectively. NO-COXIBs were tested at 10 µM for additional effects on radiation treatments against a vehicle-treated control (w/o) and celecoxib (Ce).
The log2-fold change in spheroid diameter is given as a standardized parameter for spheroid growth, which is positive for growing, near zero for stagnating and negative for shrinking spheroids. Furthermore, regrowth probabilities are given as a parameter to compare how many of the overall studied spheroids in one group recovered within 14 days. Radioprotective effects occurred when compounds were added 2 h before irradiation. In this setup, all compounds accelerated the increase in spheroid size during the regrowth phase compared to controls (Figure 5A, upper panel). Regrowth probabilities of 67–100% under NO-COXIB treatment remained however similar to controls (83%). Radiosensitizing effects occurred when compounds were added 2 h post irradiation. In this setup, all compounds decelerated the increase in spheroid size during the regrowth phase compared to controls.
(§2) Genetically modified mouse pheochromocytoma (MPC) cells expressing a codon-optimized Epas1 gene (encoding HIF2α) were cultured as three-dimensional tumor spheroids as published elsewhere. External X-ray beam radiation treatment and [^177Lu]LuCl3 radionuclide treatment was performed as reported previously with some modifications. In brief, spheroids were irradiated with a 200 kV photon beam using a Maxishot X-ray system equipped with a Y.TU/320-D03 tube (YXLON, Hamburg, Germany), growth of spheroids (n = 6) with diameters between 300−400 µm was measured in response to one fixed radiation dose, 15 Gy for X-ray treatment, and 0.25 MBq/mL of [^177Lu]LuCl3 for radionuclide treatment corresponding to a cumulative dose of approximately 2 Gy delivered for 6 days. The applied radiation doses were selected based on the half-maximal spheroid control doses (SCD50) as previously determined for MPC HIF2α spheroids by us. Spheroids were considered as regrown at 100 µm increase in diameter compared to treatment start or at a diameter growth rate of 15 µm per day. Results are reported as spheroid regrowth probability (%).
(§3) Figure 5 Effects of NO-COXIBs on radiation treatments of MPC-HIF2α tumor spheroids. (A) Growth responses to X-ray treatment with a radiation dose of 15 Gy in combination with 10 µM NO-COXIBs added to the medium at indicated time points before or after irradiation. (B) Growth responses to [^177Lu]LuCl3 treatment with an initial activity concentration of 0.25 MBq/mL in combination with NO-COXIBs; log2 fold changes in diameter indicate the number of diameter doublings compared to treatment start; 14-day regrowth probability indicates the fraction of spheroids able to regrow within 14 days after treatment start; (black arrows) time point or duration of radiation treatment; (w/o) vehicle controls are shown as black lines; (Ce) celecoxib.

[2] = system: MPC-HIF2α tumor spheroids; experiment: Spheroid regrowth assay with [177Lu]LuCl3 treatment; assay type: cell-based, mouse; conditions: 10 µM compound with 0.25 MBq [177Lu]LuCl3 for six days; for growth response (spheroid size): compared to controls; for 14-day regrowth probability: controls 50%
From the text: Radionuclide therapy is a fast-evolving treatment modality gaining more importance in treating cancer. For treatment of pheochromocytomas and paragangliomas, in particular, somatostatin type 2 receptor-targeted radionuclide therapy with [^177Lu]Lu-(Tyr^3)octreotate is currently investigated in clinical controlled trials (e.g., NCT04029428, NCT03923257, NCT03206060). To assess the additional effects of NO-COXIBs on the outcome of Lu-177 therapy, a simplified in vitro setup was used here, where MPC-HIF2α tumor spheroids were treated with 10 µM of the compounds and simultaneously 0.25 MBq of [^177Lu]LuCl3 for six days.
as §2, §3

MPC-HIF2a spheroids = experiment: Growth of non-irradiated tumor spheroids; assay type: cell-based, mouse; conditions: 10 µM compound, linear regression between 0 and 9 days
Procedure: as §1
4. Growth-rate of tumor spheroids in the presence of NO -COXIBS without radiation treatment
Compound Diameter growth rate
Table S2. Effects of NO-COXIBs on spheroid growth; diameter growth rates of non-irradiated MPC-HIF2a spheroids in presence of 10 µM of compounds determined from linear regression between 0 and 9 days after treatment start; (w/o) vehicle control treated with DMSO

[3] = screened at a concentration of 100 µM

| SMILES | SI (recombinant human COX-2) | IC50 (recombinant human COX-2; 0.1 nM to 100 µM in duplicate) | 14-day regrowth probability [1] | growth response (spheroid size) [2] | 14-day regrowth probability [2] | Diameter growth rate ± SEM (MPC-HIF2a spheroids) | IC50 (recombinant human COX-2; [3]) |
| --- | --- | --- | --- | --- | --- | --- | --- |
| COc1ccc(-c2cc(CO[N+](=O)[O-])nn2-c2ccc(S(N)(=O)=O)cc2)cc1 [5f, [5-(4-Methoxyphenyl)-1-(4-sulfamoylphenyl)-1H-pyrazol-3-yl]methyl nitrate] | >84 | 1180 nM | 17% | prevented spheroids from shrinking in size | 60–80% | 61.4 ± 5.2 µm/day |  |
| CCC(=O)NS(=O)(=O)c1ccc(-n2nc(CO[N+](=O)[O-])cc2-c2ccc(OC)cc2)cc1 [6d, {5-(4-Methoxyphenyl)-1-[4-(N-propionylsulfamoyl)phenyl]-1H-pyrazol-3-yl}methyl nitrate] |  |  | 33–40% | prevented spheroids from shrinking in size | 100% | 63.7 ± 5.9 µm/day | > 100000 nM |
| CCC(=O)NS(=O)(=O)c1ccc(-n2nc(CO[N+](=O)[O-])c(Cl)c2-c2ccc(OC)cc2)cc1 [6b, {4-Chloro-5-(4-methoxyphenyl)-1-[4-(N-propionylsulfamoyl)phenyl]-1H-pyrazol-3-yl}methyl nitrate] |  |  | 0% |  | 100% | 63.1 ± 5.3 µm/day | > 100000 nM |
| CCC(=O)NS(=O)(=O)c1ccc(-n2nc(CO[N+](=O)[O-])cc2-c2ccc(C)cc2)cc1 [6c, {1-[4-(N-Propionylsulfamoyl)phenyl]-5-(p-tolyl)-1H-pyrazol-3-yl}methyl nitrate] |  |  | 33–40% | prevented spheroids from shrinking in size | 40% | 60.0 ± 5.5 µm/day | > 100000 nM |
| COc1ccc(-c2c(Cl)c(CO[N+](=O)[O-])nn2-c2ccc(S(C)(=O)=O)cc2)cc1 [5d, {4-Chloro-5-(4-methoxyphenyl)-1-[4-(methylsulfonyl)phenyl]-1H-pyrazol-3-yl}methyl nitrate] | >92 | 1080 nM | 17% | prevented spheroids from shrinking in size | 60–80% | 61.2 ± 5.5 µm/day |  |
| Cc1ccc(-c2c(Cl)c(CO[N+](=O)[O-])nn2-c2ccc(S(C)(=O)=O)cc2)cc1 [5c, {4-Chloro-1-[4-(methylsulfonyl)phenyl]-5-(p-tolyl)-1H-pyrazol-3-yl}methyl nitrate] | >47 | 2120 nM | 17% | prevented spheroids from shrinking in size | 60–80% | 60.4 ± 5.3 µm/day |  |
| CCC(=O)NS(=O)(=O)c1ccc(-n2nc(CO[N+](=O)[O-])c(Cl)c2-c2ccc(C)cc2)cc1 [6a, {4-Chloro-1-[4-(N-propionylsulfamoyl)phenyl]-5-(p-tolyl)-1H-pyrazol-3-yl}methyl nitrate] |  |  | 33–40% | prevented spheroids from shrinking in size |  | 64.1 ± 6.1 µm/day | > 100000 nM |

From article PMC9573605, “Exploring Nitric Oxide (NO)-Releasing Celecoxib Derivatives as Modulators of Radioresponse in Pheochromocytoma Cells” (Molecules, 2022)
